From US20220080026A1, “FORMULATIONS” (Sublimity Therapeutics Limited, priority 2013, published 2022)
Counter-ions that a name gives are not always drawn.

Settings: heated at 60-70° C.

solubility in the aqueous phase of the formulation: fully soluble
Structure (SMILES): NNc1nncc2ccccc12 [Hydralazine HCl]
